Results reported in article PMC6499206, “Quantification of Volatile Metabolites Derived From Garlic (Allium sativum) in Human Urine” (Frontiers in Nutrition, 2019).

Assay: Quantification of garlic-derived metabolites in human urine after ingestion of 3 g raw garlic (SIDA, SAFE, HRGC-MS / HRGC-GC-MS)
Type: in vivo
Set-up: metabolite in urine related to creatinine: unit not given here
Conditions: for highest detected concentration of the sample series: same bulb
Text: Human urine samples were obtained from 18 volunteers (age 22–38 years, mean 27 years; 11 females, 7 males); thereby, one volunteer conducted the whole experimental series twice. At the time of examination, volunteers reported no known illness that might have potentially influenced the metabolism or the excretion of urine. The test persons were instructed to avoid foods that were rich in sulfur-containing substances at the testing day as well as 2 days preceding the testing day, namely garlic, onion, wild garlic, chives, cabbage, and leek, and were only allowed to consume the garlic sample provided in the course of the experiments. Additionally, subjects were asked to keep records of the food (including food supplements) and beverages they consumed during these 3 testing days. Generally, the overall panelists' requirements were in accordance with our previous studies ([5], [16]).
On the sampling day, the outer garlic cloves of a whole garlic bulb were peeled and cut into ~3 mm cubes by using a garlic cutter (Genius GmbH, Limburg/Lahn, Germany). Subsequently these cubes were thoroughly mixed and aliquoted into 3 g portions. Three to four test persons conducted the experiment at the same day. Each test person was asked to ingest a garlic portion of 3 g. In total, eight consecutive urine samples were provided by each test person, comprising one whole urine set. The samples were collected in sterile brown glass bottles, with sampling times as follows: one sample was provided directly prior to garlic consumption. The series of the second to eighth sample was then obtained at about 0.5, 1, 2, 4, 6, 8, and 24 h after garlic consumption, respectively. Between the first urine sample (prior to garlic consumption) and the seventh urine sample (8 h after garlic consumption) test persons only spent urine at the specific time points mentioned before. Another sample was provided at the next morning (24 h after garlic consumption). Between the samples provided 8 and 24 h after garlic consumption no urine was collected. All samples were immediately placed into a −80°C freezer and were kept frozen until further analysis.
The samples of each set were termed according to their sampling time. The following list provides the time intervals that are related to the respective sample name: • - pre: before garlic consumption • - 0.5 h post: 0.4–0.8 h after garlic consumption • - 1 h post: 0.9–1.3 h after garlic consumption • - 2 h post: 1.8 h−2.2 h after garlic consumption • - 4 h post: 3.8–4.4 h after garlic consumption • - 6 h post: 5.8–6.4 h after garlic consumption • - 8 h post: 7.8–8.4 h after garlic consumption • - 24 h post: 23.8–25.6 h after garlic consumption
A creatinine kit (Labor+Technik Eberhard Lehmann GmbH, Berlin, Germany) was used to determine the creatinine content in each urine sample. The determination principle of this kit is based on the reaction of creatinine with picric acid under basic conditions (Jaffé reaction). The formed complex was detected photometrically at a wavelength of 492 nm.
For quantification purposes, the deuterated standards ^2H3-AMS, ^2H3-AMSO, and ^2H3-AMSO2 were added to the sample and stirred for 10 min. Subsequently, DCM was added in a ratio of 1:2 (DCM/human urine; v/v) and this solution was stirred for further 30 min at room temperature. To isolate the volatile fraction from the urine samples we then applied SAFE-distillation ([17]), thereby distilling the respective samples at 50°C. After completion of the distillation process, 10 mL of DCM were applied in each case to rinse the SAFE apparatus and to ensure complete transition of the volatile compounds. This process was repeated with another 10 mL of DCM. After thawing, the obtained aqueous distillate phase was extracted three times with 25 mL DCM. The organic phases were combined, dried over anhydrous Na2SO4 and concentrated to a total volume of 100 μL by means of Vigreux distillation and subsequent micro-distillation at 50°C. […]

[1] = U XII, 2 h post (1.85 h), 3 g raw garlic
[2] = U XII, 4 h post (3.80 h), 3 g raw garlic
[3] = U XII, 6 h post (5.82 h), 3 g raw garlic
[4] = U XII, 8 h post (7.82 h), 3 g raw garlic
[5] = U XII, 24 h post (23.92 h), 3 g raw garlic
[6] = U XII, pre (-0.08 h), 3 g raw garlic
[7] = U XIII, 0.5 h post (0.42 h), 3 g raw garlic
[8] = U XIII, 1 h post (0.92 h), 3 g raw garlic
[9] = U XIII, 2 h post (1.92 h), 3 g raw garlic
[10] = U XIII, 4 h post (3.92 h), 3 g raw garlic
[11] = U XIII, 6 h post (5.92 h), 3 g raw garlic
[12] = U XIII, 8 h post (7.92 h), 3 g raw garlic
[13] = U XIII, 24 h post (23.92 h), 3 g raw garlic
[14] = U XIII, pre (-0.08 h), 3 g raw garlic

C=CCS(C)(=O)=O [AMSO2, allyl methyl sulfone]
metabolite concentration in urine [1]: 48.2 µg/kg
metabolite concentration in urine, creatinine-normalized [1]: 72.4 µg/mmol creatinine
metabolite concentration in urine [2]: 76.1 µg/kg
metabolite concentration in urine, creatinine-normalized [2]: 28.5 µg/mmol creatinine
metabolite concentration in urine [3]: 82.8 µg/kg
metabolite concentration in urine, creatinine-normalized [3]: 14.3 µg/mmol creatinine
metabolite concentration in urine [4]: 61.4 µg/kg
metabolite concentration in urine, creatinine-normalized [4]: 21.6 µg/mmol creatinine
metabolite concentration in urine [5]: 6.6 µg/kg
metabolite concentration in urine, creatinine-normalized [5]: 0.4 µg/mmol creatinine
metabolite concentration in urine [6]: 2.0 µg/kg
metabolite concentration in urine, creatinine-normalized [6]: 0.1 µg/mmol creatinine
metabolite concentration in urine [7]: 19.8 µg/kg
metabolite concentration in urine, creatinine-normalized [7]: 12.4 µg/mmol creatinine
metabolite concentration in urine [8]: 145.0 µg/kg
metabolite concentration in urine, creatinine-normalized [8]: 58.5 µg/mmol creatinine
metabolite concentration in urine [9]: 182.5 µg/kg
metabolite concentration in urine, creatinine-normalized [9]: 52.4 µg/mmol creatinine
metabolite concentration in urine [10]: 174.3 µg/kg
metabolite concentration in urine, creatinine-normalized [10]: 36.8 µg/mmol creatinine
metabolite concentration in urine [11]: 105.0 µg/kg
metabolite concentration in urine, creatinine-normalized [11]: 9.0 µg/mmol creatinine
metabolite concentration in urine [12]: 67.5 µg/kg
metabolite concentration in urine, creatinine-normalized [12]: 7.7 µg/mmol creatinine
metabolite concentration in urine [13]: 8.5 µg/kg
metabolite concentration in urine, creatinine-normalized [13]: 1.0 µg/mmol creatinine
metabolite concentration in urine [14]: < LOD^3
metabolite concentration in urine, creatinine-normalized [14]: < LOD^3
variation factor of the concentration maxima between test persons (Urine XIII-XVI, highest vs lowest maximum): 2.2
highest detected concentration of the sample series (Urine XIII, 3 g raw garlic): 58.5 μg/mmol creatinine
highest detected concentration of the sample series (Urine XIV (AMS: printed Urine UIV), 3 g raw garlic): 60.1 μg/mmol creatinine
highest detected concentration of the sample series (Urine XV, 3 g raw garlic): 83.1 μg/mmol creatinine
time of highest concentration in urine after garlic consumption (Urine XVI, 3 g raw garlic): 4 h
highest detected concentration of the sample series (Urine XVI, 3 g raw garlic): 37.19 μg/mmol creatinine
metabolite in urine related to creatinine (urine set U XIX, 0.5 h post (0.50 h), garlic 3.1133 g): 4.4
metabolite in urine related to creatinine (urine set U XIX, 1 h post (1.00 h), garlic 3.1133 g): 41.2
metabolite in urine related to creatinine (urine set U XIX, 2 h post (2.00 h), garlic 3.1133 g): 77.6
metabolite in urine related to creatinine (urine set U XIX, 4 h post (4.00 h), garlic 3.1133 g): 41.4
metabolite in urine related to creatinine (urine set U XIX, 6 h post (6.20 h), garlic 3.1133 g): 30.7
metabolite in urine related to creatinine (urine set U XIX, 8 h post (7.93 h), garlic 3.1133 g): 24.3
metabolite in urine related to creatinine (urine set U XIX, 24 h post (23.98 h), garlic 3.1133 g): 1.8
metabolite in urine related to creatinine (urine set U XIX, pre (-0.07 h), garlic 3.1133 g): < LOD^3
metabolite in urine related to creatinine (urine set U XVII, 0.5 h post (0.58 h), garlic 3.1559 g): 0.3
metabolite in urine related to creatinine (urine set U XVII, 1 h post (1.00 h), garlic 3.1559 g): 4.7
metabolite in urine related to creatinine (urine set U XVII, 2 h post (2.17 h), garlic 3.1559 g): 32.1
metabolite in urine related to creatinine (urine set U XVII, 4 h post (4.00 h), garlic 3.1559 g): 27.6
metabolite in urine related to creatinine (urine set U XVII, 6 h post (6.08 h), garlic 3.1559 g): 3.0
metabolite in urine related to creatinine (urine set U XVII, 8 h post (8.00 h), garlic 3.1559 g): 5.1
metabolite in urine related to creatinine (urine set U XVII, 24 h post (23.92 h), garlic 3.1559 g): 0.7
metabolite in urine related to creatinine (urine set U XVII, pre (-0.08 h), garlic 3.1559 g): traces^3
metabolite in urine related to creatinine (urine set U XVIII, 0.5 h post (0.63 h), garlic 3.1981 g): 14.7
metabolite in urine related to creatinine (urine set U XVIII, 1 h post (1.05 h), garlic 3.1981 g): 40.5
metabolite in urine related to creatinine (urine set U XVIII, 2 h post (2.00 h), garlic 3.1981 g): 68.1
metabolite in urine related to creatinine (urine set U XVIII, 4 h post (3.97 h), garlic 3.1981 g): 56.4
metabolite in urine related to creatinine (urine set U XVIII, 6 h post (5.97 h), garlic 3.1981 g): 26.3
metabolite in urine related to creatinine (urine set U XVIII, 8 h post (8.30 h), garlic 3.1981 g): 42.2
metabolite in urine related to creatinine (urine set U XVIII, 24 h post (24.13 h), garlic 3.1981 g): 1.3
metabolite in urine related to creatinine (urine set U XVIII, pre (-0.08 h), garlic 3.1981 g): < LOD^3
